Data on one molecule can be found in patent US20060019971A1, “Treatment of cardiovascular disease with inhibitors of p38 kinase” (priority 2003, published 2006).

Common to all, as to type: cell-based, human
The test system of one experiment is ET-1 mRNA in HPBMCs. Description: ET-1 gene expression in HPBMCs, real-time PCR. As to conditions: 6 hours. The procedure: 5×10^6 HPBMCs were plated in 6-well. After 1 hour medium was removed and cells were treated with vehicle or 1 μM P38 INHIBITOR in RPMI 1640 medium. After 1 hour cells were stimulated with 10% FCS only or 10 μg/ml CRP plus 10% FCS. After 6 hours RNA was extracted from the cells and ET-1 gene expression level was determined by real-time PCR as described in the Experimental section.
(§1) Cryopreserved human peripheral blood monocytes (HPBMCs, from Biowitker, Walkersvill, Md.) were thawed and washed twice in RPMI 1640. Cells were plated in tissue culture plates and incubated in 5% CO2 at 37 C. After 1 hr media were removed and cells were treated with various treatments. After 2 to 20 hours conditioned media and/or cell lysates were collected for the analyses of secreted cytokines, protein or mRNA expression. 10 μg/ml of purified human CRP (Calbiochem, San Diego, Calif.) was used in most of the treatments. In some experiments fetal calf serum (FCS from ATCC) was added to a final concentration of 10% together with CRP. In the examples provided herein, including those assessing the effects of p38 antagonism, cells were pre-treated with SD, a p38 small molecule inhibitor (Compound 162 in Table A) for 1 hour prior to CRP treatment as described above. In a parallel series of experiments, the effect of vehicle (DMSO) was tested. For TaqMan analyses of various gene expression cells were lysed in ice-cold RLT lysis buffer (Qiagen, Valencia, Calif.) and the lysates were kept in −80° C. until the analyses. […]
(§2) RNA was extracted from the cells using Qiagen RNA extraction kit according to the manufacturer's instruction. The expression of pro-inflammatory genes IL-1β, IL-6, IL-8, TNFα, COX-2, ET-1, TF were assessed by real-time PCR. […]
(§3) Real-time RT-PCR was performed in a two-step manner. cDNA synthesis and real-time detection were carried out in a PTC-100™ Thermal Cycler (MJ Research Inc, Waltham, Mass.) and an ABI Prism™ 7700 Sequence Detection System (Applied Biosystems, Foster City, Calif.), respectively. […] Relative quantitation of gene expression was performed using the relative standard curve method. […]
In general terms: In qPCR the cycle at which signal appears reflects the starting amount.

For another experiment, the system named is TF protein in HPBMCs. The experiment is described as follows: Tissue Factor protein expression in HPBMCs, Western. The note with it: 1 μM SD, 16 hours. The procedure:
The figures illustrate the effects of CRP on TF protein and mRNA expression in HPBMCs and their modulation by p38 inhibitor. 1.5×10^6 HPBMCs were plated in 48-well. After 1 hour medium was removed and cells were incubated with or without 10 μg/ml of purified human CRP in serum-free RPMI 1640. In parallel experiments, cells were treated with 10% FCS together with the CRP treatment. For the p38 antagonism, p38 inhibitor was added to a final concentration of 1 μM in the parallel treatment. After 16 hours cells were lysed and TF protein level was determined by Western blot. TF signal was normalized by GAPDH signal. As shown in FIG. 7(c), after 6 hours TF mRNA level were determined by real-time PCR as described in the Experimental section.
as §1, with “tested.” for “tested. For TaqMan analyses of various gene expression cells were lysed in ice-cold RLT lysis buffer (Qiagen, Valencia, Calif.) and the lysates were kept in −80° C. until the analyses.”
HPBMCs were treated as described above (p38 MAP kinase activation). […] 10 μg total proteins were resolved on LDS-PAGE (In Vitrogen, Carlsbad, Calif.), and tissue factor protein expression was determined by Western using antibody against human tissue factor (American Diagnostica, Stamford, Conn.). […]

In the next experiment the test system is TNFα mRNA in HPBMCs. Description: TNFα gene expression in HPBMCs, real-time PCR. The note with it: 2 hours. The procedure: 5×10^6 HPBMCs were plated in 6-well. After 1 hour medium was removed and cells were treated with vehicle or 1μM p38 inhibitor in RPMI 1640 medium. After 1 hour cells were stimulated with 10% FCS only or 10 μg/ml CRP plus 10% FCS. After 6 hours conditioned medium was collected and IL-1b and TNFa levels were determined by ELISA. […] 5×10^6 HPBMCs were plated in 6-well. After I hour medium was removed and cells were treated with vehicle or […] p38 inhibitor in RPMI 1640 medium. After 1 hour cells were stimulated with 10% FCS only or 10 μg/ml CRP plus 10% FCS. After 2 hours RNA was extracted from the cells and TNFa (c) and IL-1b (d) expression levels were determined by real-time PCR as described in the Experimental section. […]
as §2, §3

Entries after “also recorded” stand apart in the source; their conditions may differ.

Turning to `C[C@@H]1CN(Cc2ccc(F)cc2)[C@@H](C)CN1C(=O)c1cc2c(C(=O)C(=O)N(C)C)c[nH]c2cc1Cl` [Compound 162], the “inhibition of CRP-invoked ET-1 mRNA expression” value in the experiment with ET-1 mRNA in HPBMCs (1 μM SD pre-treatment, listed as SD) is recorded as “almost completely blocked; also recorded: almost completely inhibited”. The “inhibition of FCS induced ET-1 mRNA” value in the experiment with ET-1 mRNA in HPBMCs (1 μM SD) is “completely inhibited”. In addition, in the experiment with TF protein in HPBMCs, the “reduction of TF protein expression invoked by CRP plus FCS” value is given as “to control level” and the “reduction of TF protein expression invoked by FCS” value is reported as “to control level”. For the same molecule, the “reduction of TF protein expression invoked by CRP” value in the experiment on TF protein in HPBMCs (listed as SD) is listed as “to control level; also recorded: blocked”. In addition, in the experiment with TNFα mRNA in HPBMCs (1 μM SD), the “inhibition of CRP augmented TNFα transcription” value is listed as “completely attenuated”. Further, the “FCS induced TNFα transcription, sensitivity to SD treatment” value in the experiment with TNFα mRNA in HPBMCs (10% FCS) is reported as “sensitive”.
